Results reported in the supplement of paper PMC11451515.

Experiments:
Settings in all cases: 48 h
[1] = test system: NOMO1; experiment: AUC of viability dose-response curve (% viability x log10 dose units); higher = less sensitive
How it was run: (§1)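 Area under the curve was integrated by trapezoidal rule from a log-logistic fit of normalised viability, with curves exceeding full viability scaled and quality-control failures removed. The fit had four parameters over log10 doses. Viability came from CellTiter-Glo One luminescence, normalised per plate to DMSO and cell-free wells, after leukemia cells adapted to each medium (500 or 1000 cells/well, 1536-well plates) were exposed to library compounds in DMSO for 48 h at 37°C. The 11 threefold doses ran from 47 μM to 0.79 nM.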

[2] = test system: P12-Ichikawa; experiment: as above
How it was run: as §1

[3] = test system: SEM cells; experiment: cell viability relative to DMSO control; higher = less cytotoxic
How it was run: (§2)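 Before seeding, each leukemia line was adapted for at least four passages in each medium. NOMO1 or SEM cells (500 cells/well) and P12-Ichikawa cells (1000 cells/well) went into 1536-well plates at 5 μl, then received library compounds in DMSO by pin dosing across 11 threefold concentrations, 47 μM to 0.79 nM. Readout was CellTiter-Glo One luminescence after 48 h at 37°C, and viability is given as a per-plate percentage of DMSO wells, with cell-free wells as background.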

[4] = test system: NOMO1; experiment: as above
How it was run: as §2

[5] = test system: P12-Ichikawa; experiment: as above
How it was run: as §2

[6] = test system: SEM cells; experiment: AUC of viability dose-response curve (% viability x log10 dose units); higher = less sensitive
How it was run: as §1

[7] = RPMI 5 mM glucose + 10% dialyzed FBS
[8] = HPLM + 10% dialyzed FBS, 0.000781 µM
[9] = HPLM + 10% dialyzed FBS, 0.00234 µM
[10] = HPLM + 10% dialyzed FBS, 0.00702 µM
[11] = HPLM + 10% dialyzed FBS, 0.0211 µM
[12] = HPLM + 10% dialyzed FBS, 0.0632 µM
[13] = HPLM + 10% dialyzed FBS, 0.19 µM
[14] = HPLM + 10% dialyzed FBS, 0.569 µM
[15] = HPLM + 10% dialyzed FBS, 1.71 µM
[16] = HPLM + 10% dialyzed FBS, 5.12 µM
[17] = HPLM + 10% dialyzed FBS, 15.4 µM
[18] = HPLM + 10% dialyzed FBS, 46.1 µM
[19] = RPMI 5 mM glucose + 10% FBS, 0.000781 µM
[20] = RPMI 5 mM glucose + 10% FBS, 0.00234 µM
[21] = RPMI 5 mM glucose + 10% FBS, 0.00702 µM
[22] = RPMI 5 mM glucose + 10% FBS, 0.0211 µM
[23] = RPMI 5 mM glucose + 10% FBS, 0.0632 µM
[24] = RPMI 5 mM glucose + 10% FBS, 0.19 µM
[25] = RPMI 5 mM glucose + 10% FBS, 0.569 µM
[26] = RPMI 5 mM glucose + 10% FBS, 1.71 µM
[27] = RPMI 5 mM glucose + 10% FBS, 5.12 µM
[28] = RPMI 5 mM glucose + 10% FBS, 15.4 µM
[29] = RPMI 5 mM glucose + 10% FBS, 46.1 µM
[30] = RPMI 5 mM glucose + 10% dialyzed FBS, 0.000781 µM
[31] = RPMI 5 mM glucose + 10% dialyzed FBS, 0.00234 µM
[32] = RPMI 5 mM glucose + 10% dialyzed FBS, 0.00702 µM
[33] = RPMI 5 mM glucose + 10% dialyzed FBS, 0.0211 µM
[34] = RPMI 5 mM glucose + 10% dialyzed FBS, 0.0632 µM
[35] = RPMI 5 mM glucose + 10% dialyzed FBS, 0.19 µM
[36] = RPMI 5 mM glucose + 10% dialyzed FBS, 0.569 µM
[37] = RPMI 5 mM glucose + 10% dialyzed FBS, 1.71 µM
[38] = RPMI 5 mM glucose + 10% dialyzed FBS, 5.12 µM
[39] = RPMI 5 mM glucose + 10% dialyzed FBS, 15.4 µM
[40] = RPMI 5 mM glucose + 10% dialyzed FBS, 46.1 µM

For `Cc1nc(Nc2n[nH]c3c2CN(C(=O)N[C@H](CN(C)C)c2ccccc2)C3(C)C)c2sccc2n1`, the “AUC of viability dose-response curve” value ([1]; HPLM + 10% dialyzed FBS) was 262, the “AUC of viability dose-response curve” value ([1]; RPMI 5 mM glucose + 10% FBS) was 277 and the “AUC of viability dose-response curve” value [1, 7] was 266. The “AUC of viability dose-response curve” value ([2]; HPLM + 10% dialyzed FBS) was 317, the “AUC of viability dose-response curve” value ([2]; RPMI 5 mM glucose + 10% FBS) was 258 and the “AUC of viability dose-response curve” value [2, 7] was 266. For the same molecule, the cell viability [3, 8] was 72.2%, the cell viability [3, 9] was 70.6% and the cell viability [3, 10] was 51.6%. The cell viability [3, 11] was 66.4%, the cell viability [3, 12] was 52.6% and the cell viability [3, 13] was 48.5%. The cell viability [3, 14] was 36.6%, the cell viability [3, 15] was 23.8% and the cell viability [3, 16] was 15.7%. The cell viability [3, 17] was 2.46%, the cell viability [3, 18] was 4.3% and the cell viability [3, 19] was 91.2%. For the same molecule, the cell viability [3, 20] was 85.9%, the cell viability [3, 21] was 62.8% and the cell viability [3, 22] was 79.1%. For the same molecule, the cell viability [3, 23] was 60.3%, the cell viability [3, 24] was 47% and the cell viability [3, 25] was 46%. The cell viability [3, 26] was 25.7%, the cell viability [3, 27] was 15.2% and the cell viability [3, 28] was 1.75%. It also gave a cell viability [3, 29] of 3.09%, a cell viability [3, 30] of 82.2% and a cell viability [3, 31] of 73%. The cell viability [3, 32] was 70.1%, the cell viability [3, 33] was 82.1% and the cell viability [3, 34] was 64.2%. The cell viability [3, 35] was 55.1%, the cell viability [3, 36] was 50% and the cell viability [3, 37] was 30.4%. For the same molecule, the cell viability [3, 38] was 21.4%, the cell viability [3, 39] was 2.4% and the cell viability [3, 40] was 3.71%. The cell viability [4, 8] was 89.4%, the cell viability [4, 9] was 82.7% and the cell viability [4, 10] was 70.7%. For the same molecule, the cell viability [4, 11] was 74.1%, the cell viability [4, 12] was 65.7% and the cell viability [4, 13] was 53.8%. The cell viability [4, 14] was 54.3%, the cell viability [4, 15] was 40.2% and the cell viability [4, 16] was 41.2%. It also gave a cell viability [4, 17] of 23.1%, a cell viability [4, 18] of 2.58% and a cell viability [4, 19] of 82.6%. The cell viability [4, 20] was 85%, the cell viability [4, 21] was 91.1% and the cell viability [4, 22] was 82.6%. The cell viability [4, 23] was 71.8%, the cell viability [4, 24] was 54.2% and the cell viability [4, 25] was 53.2%. The cell viability [4, 26] was 40.5%, the cell viability [4, 27] was 38.7% and the cell viability [4, 28] was 25.6%. It also gave a cell viability [4, 29] of 2.97%, a cell viability [4, 30] of 80.3% and a cell viability [4, 31] of 86.9%. It also gave a cell viability [4, 32] of 78.3%, a cell viability [4, 33] of 72.6% and a cell viability [4, 34] of 55.8%. It also gave a cell viability [4, 35] of 58%, a cell viability [4, 36] of 60.1% and a cell viability [4, 37] of 38.9%. For the same molecule, the cell viability [4, 38] was 40.9%, the cell viability [4, 39] was 31% and the cell viability [4, 40] was 2.28%. It also gave a cell viability [5, 8] of 84.9%, a cell viability [5, 9] of 84.7% and a cell viability [5, 10] of 76.4%. It also gave a cell viability [5, 11] of 81%, a cell viability [5, 12] of 75.1% and a cell viability [5, 13] of 73.5%. The cell viability [5, 14] was 72.6%, the cell viability [5, 15] was 53.9% and the cell viability [5, 16] was 52.3%. The cell viability [5, 17] was 45.4%, the cell viability [5, 18] was 15.6% and the cell viability [5, 19] was 82.3%. The cell viability [5, 20] was 81.7%, the cell viability [5, 21] was 70.8% and the cell viability [5, 22] was 60%. It also gave a cell viability [5, 23] of 62.3%, a cell viability [5, 24] of 59.3% and a cell viability [5, 25] of 53.4%. For the same molecule, the cell viability [5, 26] was 38.5%, the cell viability [5, 27] was 41.4% and the cell viability [5, 28] was 27.7%. It also gave a cell viability [5, 29] of 12.8%, a cell viability [5, 30] of 80% and a cell viability [5, 31] of 81.4%. For the same molecule, the cell viability [5, 32] was 77.2%, the cell viability [5, 33] was 72.1% and the cell viability [5, 34] was 63.6%. For the same molecule, the cell viability [5, 35] was 56%, the cell viability [5, 36] was 51.4% and the cell viability [5, 37] was 40.6%. It also gave a cell viability [5, 38] of 38.8%, a cell viability [5, 39] of 32.3% and a cell viability [5, 40] of 15.8%.

In the case of `CN(C)c1cc(NC(=O)CNC(C)(C)C)c(O)c2c1C[C@H]1C[C@H]3[C@H](N(C)C)C(O)=C(C(N)=O)C(=O)[C@@]3(O)C(O)=C1C2=O`, the “AUC of viability dose-response curve” value ([6]; HPLM + 10% dialyzed FBS) is reported as 452, the “AUC of viability dose-response curve” value ([6]; RPMI 5 mM glucose + 10% FBS) is reported as 453 and the “AUC of viability dose-response curve” value [6, 7] is reported as 436. For the same molecule, the “AUC of viability dose-response curve” value ([1]; HPLM + 10% dialyzed FBS) was 466, the “AUC of viability dose-response curve” value ([1]; RPMI 5 mM glucose + 10% FBS) was 471 and the “AUC of viability dose-response curve” value [1, 7] was 457. For the same molecule, the “AUC of viability dose-response curve” value ([2]; HPLM + 10% dialyzed FBS) was 457, the “AUC of viability dose-response curve” value ([2]; RPMI 5 mM glucose + 10% FBS) was 470 and the “AUC of viability dose-response curve” value [2, 7] was 454.

With `CCN(CC)C(=O)C1=CC=C(C=C1)C/2=C/C3(CCNCC3)OC4=CC=CC(=C24)O` the “AUC of viability dose-response curve” value ([6]; HPLM + 10% dialyzed FBS) was 472, the “AUC of viability dose-response curve” value ([6]; RPMI 5 mM glucose + 10% FBS) was 464 and the “AUC of viability dose-response curve” value [6, 7] was 464. For the same molecule, the “AUC of viability dose-response curve” value ([1]; HPLM + 10% dialyzed FBS) was 287, the “AUC of viability dose-response curve” value ([1]; RPMI 5 mM glucose + 10% FBS) was 329 and the “AUC of viability dose-response curve” value [1, 7] was 345. For the same molecule, the “AUC of viability dose-response curve” value ([2]; HPLM + 10% dialyzed FBS) was 459, the “AUC of viability dose-response curve” value ([2]; RPMI 5 mM glucose + 10% FBS) was 449 and the “AUC of viability dose-response curve” value [2, 7] was 449.

With `C=CCO/N=C(/C[C@H]1O[C@@H]2O[C@]3(C)CC[C@H]4[C@H](C)CC[C@@H]([C@H]1C)[C@@]24OO3)[C@H]1O[C@@H]2O[C@]3(C)CC[C@H]4[C@H](C)CC[C@@H]([C@H]1C)[C@@]24OO3` the “AUC of viability dose-response curve” value ([6]; HPLM + 10% dialyzed FBS) was 350, the “AUC of viability dose-response curve” value ([6]; RPMI 5 mM glucose + 10% FBS) was 329 and the “AUC of viability dose-response curve” value [6, 7] was 328. The “AUC of viability dose-response curve” value ([1]; HPLM + 10% dialyzed FBS) was 347, the “AUC of viability dose-response curve” value ([1]; RPMI 5 mM glucose + 10% FBS) was 340 and the “AUC of viability dose-response curve” value [1, 7] was 338. The “AUC of viability dose-response curve” value ([2]; HPLM + 10% dialyzed FBS) was 397, the “AUC of viability dose-response curve” value ([2]; RPMI 5 mM glucose + 10% FBS) was 357 and the “AUC of viability dose-response curve” value [2, 7] was 359.
